Assays:
[1] = supplementation prior to pregnancy; cited from earlier work
[2] = system: undifferentiated human embryonic stem cells (H1 and H9 hESC); test: Metabolite profiling (LC/ESI-TOF-MS) of supernatant of hESCs treated with valproate; assay type: cell-based
Protocol: Masses were binned together if they were within 10 ppm and eluted within a 2 minutes retention time window. […] Binning of the data is required for statistical analysis and comparison of masses across the entire experiment. If multiple peaks with the same mass at the same retention time within a single sample were detected by Mass Hunter, they were averaged to assist data analysis.
As used herein, a mass was considered to be the same across LC/ESI-TOF-MS runs using a simple algorithm that first sorts the data by mass and retention time. […] If a series of measurements fit this definition it was considered to be from the same compound. If either the mass or the retention time varied by more than the limits listed above it was considered to be a different compound and given a new unique designation.

[3] = system: H1/NIH code WA01 hES cells; test: Quantitative real-time PCR of epigenetic regulators and developmental genes in VPA-treated hESCs; assay type: cell-based, human; conditions: 1 mM VPA treated
Protocol: Treated and control H1/NIH code WA01 hES cells (passage 41) were analyzed by real-time PCR, and each treatment group was paired with a corresponding control group that received the standard growth media combination of CM+bFGF without VPA. In these studies, total cellular RNA was extracted from cells harvested at 24 hours (24 H), 4 days (4 D) and 8 days (EC) using the RNA Easy Kit (Qiagen, Valencia, Calif.) according to the manufacturer's instructions.
Expression levels of candidate test genes and a housekeeping gene (Beta-2-microglobulin) were evaluated by quantitative real-time PCR using a DNA Engine-Opticon 2 Detection System (MJ Research, Watertown, Mass.). The housekeeping gene acts as an internal control for normalization of RNA levels. The primers used for real-time PCR reactions were designed using Beacon Designer software (Premier Biosoft International, Palo Alto, Calif.). RNA was reverse transcribed using iScript cDNA Synthesis kit (Bio-Rad, Hercules, Calif.), wherein each cDNA synthesis reaction (20 μL) included 4 μL of 5× iScript reaction mix, 1 μL of iScript reverse transcriptase, and 2 μL of RNA. PCR was performed on cDNA in PCR reaction mixtures (25 μL) each containing 12.5 μL of Supermix (contains dNTPs, Taq DNA polymerase, SYBR Green I, and fluorescein), 250 nM forward primer, 250 nM reverse primer, and 1.6 μL RT-PCR products. Melting curve analysis and agarose gel electrophoresis were performed after real-time PCR reaction to monitor PCR specificity, wherein PCR products were detected with SYBR Green I using the iQ SYBR Green Supermix kit (Bio-Rad).
Quantifying the relative expression of real-time PCR was performed using the 2-ΔΔCt method (Livak & Schmittgen, 2001, Methods 25:402-8), and a general linear model was employed to fit the expression data. The PROC GLM procedure in SAS (version 8.2; SAS Institute, Cary, N.C.) was used to estimate least squares means in expression between treated and untreated hESCs and P<0.05 was considered statistically significant
Real-time PCR was conducted on samples from 24 hours (24 H), 4 days (4 D) and 8 days (EC) after VPA treatment to investigate expression levels of epigenetic regulators (such as DNA methyltransferase-1, DNMT-1, BMI-1, EED) and critical transcription factors responsible for embryonic patterning and neurodevelopment (RUNX2, BMP7, FGF8, CBX2, GLI3, SSH and SP8) in human embryonic stem cells.

[4] = system: neuronal precursors derived from hESCs; test: Metabolite profiling of neural precursors derived from hESCs treated with valproate; assay type: cell-based, human; conditions: 1 mM valproate
Description: Metabolomic assessment of teratogens on embryonic development is not limited exclusively to hESCs.

[5] = system: human embryonic stem cells; test: Viability and pluripotency (Oct-4, morphology) of hESCs after valproate exposure; assay type: cell-based; conditions: hESCs remained viable for multiple passages following exposure
[6] = system: human embryonic stem cells; test: Metabolite profiling (LC/ESI-TOF mass spectrometry) of extracellular media of hESCs treated with alcohol; assay type: cell-based; conditions: for Putative kynurenine (exact neutral mass 208.0816) upregulation: day four
Description: Binned masses were annotated in silico by querying the neutral masses in several different databases. These databases included Metlin, Biological Magnetic Resonance Data Bank (BMRB), NIST Chemistry WebBook, and the Human Metabolome Database. A mass was considered identified when its neutral mass was within 10 ppm of a known compound annotated in one of the databases listed above.

[7] = 0.3% alcohol, four days, p<0.05

## Nc1nc2ncc(CNc3ccc(C(=O)N[C@@H](CCC(=O)O)C(=O)O)cc3)nc2c(=O)[nH]1 [Folic acid]
[1]
  Reduction of the incidence of spina bifida: 70%

## CCCC(CCC)C(=O)O [valproate]
[2]; 22 μM valproate, of 3,241 mass signals (3%)
  Compounds with statistically-significant differences in at least one time point: 110 compounds
[2]; VPA, 24 hours, vs untreated controls
  Small molecules absent in treated groups: approximately 40
[3]; 4 D
  BMI-1 gene expression level (target gene/Beta-2-Microglobulin): 0.112
  BMP7 gene expression level (target gene/Beta-2-Microglobulin): 0.342
  CBX2 gene expression level (target gene/Beta-2-Microglobulin): 1.1881
  DNMT1 gene expression level (target gene/Beta-2-Microglobulin): 0.002
  EED gene expression level (target gene/Beta-2-Microglobulin): 0.185
  GLI3 gene expression level (target gene/Beta-2-Microglobulin): 0.774
  H19 gene expression level (target gene/Beta-2-Microglobulin): 0.846
  RUNX2 gene expression level (target gene/Beta-2-Microglobulin): 4.020
  SP8 gene expression level (target gene/Beta-2-Microglobulin): 1.703
  Shh gene expression level (target gene/Beta-2-Microglobulin): 0.533
[3]; 24 H
  BMI-1 gene expression level (target gene/Beta-2-Microglobulin): 0.252
  BMP7 gene expression level (target gene/Beta-2-Microglobulin): 0.093
  CBX2 gene expression level (target gene/Beta-2-Microglobulin): 0.245
  DNMT1 gene expression level (target gene/Beta-2-Microglobulin): 0.624
  EED gene expression level (target gene/Beta-2-Microglobulin): 0.342
  FGF8 gene expression level (target gene/Beta-2-Microglobulin): 0.801
  GLI3 gene expression level (target gene/Beta-2-Microglobulin): 0.015
  H19 gene expression level (target gene/Beta-2-Microglobulin): 0.006
  RUNX2 gene expression level (target gene/Beta-2-Microglobulin): 1.769
  SP8 gene expression level (target gene/Beta-2-Microglobulin): 0.235
  Shh gene expression level (target gene/Beta-2-Microglobulin): 0.562
[3]; EC (8 days)
  BMI-1 gene expression level (target gene/Beta-2-Microglobulin): 1.071
  BMP7 gene expression level (target gene/Beta-2-Microglobulin): 1.664
  CBX2 gene expression level (target gene/Beta-2-Microglobulin): 1.946
  DNMT1 gene expression level (target gene/Beta-2-Microglobulin): 1.124
  EED gene expression level (target gene/Beta-2-Microglobulin): 1.769
  FGF8 gene expression level (target gene/Beta-2-Microglobulin): 0.837
  GLI3 gene expression level (target gene/Beta-2-Microglobulin): 1.918
  H19 gene expression level (target gene/Beta-2-Microglobulin): 2.756
  RUNX2 gene expression level (target gene/Beta-2-Microglobulin): 2.434
  SP8 gene expression level (target gene/Beta-2-Microglobulin): 5.808
[4]
  Compounds differentially secreted in treated neuronal precursors versus control: Approximately 135 compounds
[5]
  Effect of treatment on hESC viability: not detrimental

## CCO [ethanol, reference compound]
[6]; 0.1% alcohol, four days, p<0.05
  8-methoxykynurenate (219.0532) change: upregulated
[6]; 0.1% treatment, p=0.001
  Putative kynurenine (exact neutral mass 208.0816) upregulation: three-fold
[6]; 0.1 and 0.3% ethanol, of 49,481 mass signals
  Compounds significantly different (p<0.05) in at least one treatment: 1,860 compounds
[6]; [7]
  5-hydroxy-L-tryptophan (220.0848) change in comparison to untreated controls: significant downregulation
  8-methoxykynurenate (219.0532) change: upregulated
[6]; 0.3% treatment, p=0.002
  Putative kynurenine (exact neutral mass 208.0816) upregulation: three-fold
